Test results as given in US20240407414A1, “DIHYDROCHALCONE DERIVATIVES” (SYMRISE AG, priority 2021, published 2024).
“And” between values parts separate entries of the source, which are not always exact repeats. Identical values can stand only once. “Also recorded” adds a separate entry of the source.

Tests used:
[1] = Descriptor intensities (0-9) in orange softdrink base, panel of five flavorists; assay type: in vivo; settings: for Lingering sweetness (0-9) A / Off note (0-9) A / Onset sweetness (0-9) A / Overall sweetness (0-9) A / acidity (0-9) A / fruity (0-9) A / juicy (0-9) A / mouthfeel (0-9) A / orange (0-9) A: A: substance alone in orange softdrink base; for Lingering sweetness (0-9) A / Off note (0-9) A / Onset sweetness (0-9) A / Overall sweetness (0-9) A / acidity (0-9) A / fruity (0-9) A / juicy (0-9) A / mouthfeel (0-9) A / orange (0-9) A / Lingering sweetness (0-9) B / Off note (0-9) B / Onset sweetness (0-9) B / Overall sweetness (0-9) B / acidity (0-9) B / fruity (0-9) B / juicy (0-9) B / mouthfeel (0-9) B / orange (0-9) B: RS 200, PD 120, HT 10, PH 30 mg/kg, n=5; for Lingering sweetness (0-9) B / Off note (0-9) B / Onset sweetness (0-9) B / Overall sweetness (0-9) B / acidity (0-9) B / fruity (0-9) B / juicy (0-9) B / mouthfeel (0-9) B / orange (0-9) B: B: + 20 mg/kg G92828 in orange softdrink base; for Lingering sweetness (0-9) Δ / Off note (0-9) Δ / Onset sweetness (0-9) Δ / Overall sweetness (0-9) Δ / acidity (0-9) Δ / fruity (0-9) Δ / juicy (0-9) Δ / mouthfeel (0-9) Δ / orange (0-9) Δ: difference B vs A (effect of 20 mg/kg G92828)
Procedure: Different descriptors relevant for the overall liking of an orange softdrink were applied and the differences in intensities of each descriptor (Δ) of FMP (A) to FMP+ compound (1) (B) were determined by a panel of five flavorists (n=5) and given as intensities from 0-9 as shown in Tables 4-12. The panelists were asked to neutralise with tap water between each sample and the intensity of the descriptors of each sample were defined before tasting the next sample. The tasting of each RS, PD, HT or PH (A) were followed by the samples with added RS, PD, HT or PH+compound (1) (B) with each being compared to the intensities of the base.

[2] = Duo test (paired comparison, trained sensory panel) of compounds against 5% sucrose solution; assay type: in vivo; settings: 50 mg/kg in 5% sucrose solution; for sweet modul. activity (%): 20 panelists, perceived sweeter than without addition
From the text: The sensory impact of trilobatin and compound (1) have been compared by a trained sensory panel (Table 1) using a series of paired comparison tests. The samples were coded and randomized (referred to as Duo test):
Each of compound (1) and trilobatin has been compared with a 5% sucrose solution in water.

[3] = Sensory profile of sugar solution with added compounds; assay type: in vivo; settings: 80 mg/kg in 5% sucrose solution
[4] = Intrinsic sweetness by Duo test against 1.5% sucrose; assay type: in vivo
Procedure: 200 g/l L. litseifolius leaf extract (47% trilobatin, 7% phloridizin) was dissolved in triacetin and reacted with lipase Novozyme 435 for 6 h at 80° C. After cooling the mixture, the solution was filtrated. The solution contained 4.2% compound 1. The intrinsic sweetness of the solution was determined by a Duo test comparing different concentrations of this solution with a 1.5% sucrose sample. It turned out that 0.15% of the solution (containing 63 mg/kg compound 1) was as sweet as 1.5% sucrose.
The intrinsic sweetness of pure compound (1) (>95%) was determined by a panel of 20 trained panellists. Thereby, a 1.5% sucrose solution was compared by a Duo test with 65 mg/kg of compound (1) in water. […] The intrinsic sweetness of compound (1) in a mixture of trilobatin and diacetyl trilobatins was similar than of pure compound (1).

[5] = Sweet taste / sweetness enhancing properties of 6″-O-acetylphloridzin; settings: in vivo
From the text: It can therefore not be concluded that any dihydrochalcone glycoside carrying an acetyl substituent will taste sweet or be able to enhance or modulate sweetness.

[6] = cited from earlier work
[7] = soft drink base and in combination with RS, PD, HT and PH

Compound: O=C(CCc1ccc(O)cc1)c1c(O)cc(O)cc1O [PH, Phloretin]
- Lingering sweetness (0-9) A [1]: 0.0
- Off note (0-9) A [1]: 0.0
- Onset sweetness (0-9) A [1]: 5.0
- Overall sweetness (0-9) A [1]: 6.5
- acidity (0-9) A [1]: 3.5
- fruity (0-9) A [1]: 5.5
- juicy (0-9) A [1]: 5.0
- mouthfeel (0-9) A [1]: 4.0
- orange (0-9) A [1]: 5.0
- Lingering sweetness (0-9) B [1]: 0.0
- Off note (0-9) B [1]: 0.0
- Onset sweetness (0-9) B [1]: 6.0
- Overall sweetness (0-9) B [1]: 6.5
- acidity (0-9) B [1]: 3.0
- fruity (0-9) B [1]: 5.5
- juicy (0-9) B [1]: 5.5
- mouthfeel (0-9) B [1]: 5.0
- orange (0-9) B [1]: 5.0
- Lingering sweetness (0-9) Δ [1]: 0.0
- Off note (0-9) Δ [1]: 0.0
- Onset sweetness (0-9) Δ [1]: 1.0
- Overall sweetness (0-9) Δ [1]: 0.0
- acidity (0-9) Δ [1]: −0.5
- fruity (0-9) Δ [1]: 0.0
- juicy (0-9) Δ [1]: 0.5
- mouthfeel (0-9) Δ [1]: 1.0
- orange (0-9) Δ [1]: 0.0

Compound: CC(=O)OC[C@H]1O[C@@H](Oc2cc(O)c(C(=O)CCc3ccc(O)cc3)c(O)c2)[C@H](O)[C@@H](O)[C@@H]1O [compound (1), 6″-O-acetyltrilobatin]
- significance of sweet modulating activity / sensory effect [2]: significant
- sweet modul. activity (%) [2]: 27.5% and 27.54%
- Lingering sweetness (0-9) B [1]: 0.0
- Off note (0-9) B [1]: 0.0
- Onset sweetness (0-9) B [1]: 4.5
- Overall sweetness (0-9) B [1]: 6.0
- acidity (0-9) B [1]: 3.5
- fruity (0-9) B [1]: 5.0
- juicy (0-9) B [1]: 4.0
- mouthfeel (0-9) B [1]: 4.0
- orange (0-9) B [1]: 5.0
- effect on perceived acidity ([1]; base, RS, HT and PH): reducing perceived acidity
- Lingering sweetness (0-9) Δ [1]: 0.0
- Off note (0-9) Δ [1]: 0.0
- Onset sweetness (0-9) Δ [1]: 0.5
- Overall sweetness (0-9) Δ [1]: 1.0
- acidity (0-9) Δ [1]: −0.5
- fruity (0-9) Δ [1]: 0.0
- juicy (0-9) Δ [1]: 0.0
- mouthfeel (0-9) Δ [1]: 0.5
- effect on acidity ([1]; in combination with PD): no reduction in acidity
- effect on lingering aftertaste ([1]; in combination with PD): slightly reduced
- effect on overall sweetness ([1]; in combination with PH, compared to PH): no increase in overall sweetness
- effect on lingering aftertaste ([1]; in combination with RS): slight increase in lingering aftertaste
- effect on fruity notes ([1]; in combination with RS and PD): increasing fruity notes
- effect on overall sweetness ([1]; in combination with RS, PD and HT): increased
- effect on onset sweetness ([1]; in combination with RS, PD, HT and PH): increases the onset sweetness
- effect on juicy character ([1]; in combination with each tested FMP): increasing the juicy character
- effect on intensity of orange flavor [1, 7]: no impact
- effect on off notes [1, 7]: no impact
- effect on juicy notes ([1]; test base alone): no effect
- effect on mouthfeel ([1]; test base and every tested FMP): improves the mouthfeel
- Aftertaste [3]: 1
- Impact [3]: 4
- Intensity [3]: 6
- Mouthfeel [3]: 5
- concentration of compound 1 contained in solution as sweet as 1.5% sucrose ([4]; in enzymatically acetylated L. litseifolius leaf extract solution (4.2% compound 1) dosed at 0.15%): 63 mg/kg
- intrinsic sweetness in a mixture of trilobatin and diacetyl trilobatins compared with pure compound ([4]; in vivo): similar

Compound: CC(=O)OC[C@H]1O[C@@H](Oc2cc(O)cc(O)c2C(=O)CCc2ccc(O)cc2)[C@H](O)[C@@H](O)[C@@H]1O [6″-O-Acetylphloridzin]
- sweet taste or sweetness enhancing properties [5]: did not show any sweet taste or sweetness enhancing properties

Compound: O=C(CCc1ccc(O)cc1)c1c(O)cc(O[C@@H]2O[C@H](CO)[C@@H](O)[C@H](O)[C@H]2O)cc1O [trilobatin, phloretin-4′-β-D-glucopyranoside]
- significance of sweet modulating activity / sensory effect [2]: did not have a significant sensory effect; also recorded: did not show a significant sensory effect
- sweet modul. activity (%) [2]: 1.66%
- taste at 20 mg/kg ([6]; 20 mg/kg): does not taste sweet
- taste at 100 mg/kg ([6]; 100 mg/kg, compared to 0.5% sucrose solution): weakly sweet
- concentration above which sweetness can be detected ([6]; in vivo): above 60 mg/kg
- Aftertaste [3]: 1
- Impact [3]: 3
- Intensity [3]: 4
- Mouthfeel [3]: 5

Compound: COc1ccc([C@@H]2CC(=O)c3c(O)cc(O)cc3O2)cc1O [HT, Hesperetin]
- Lingering sweetness (0-9) A [1]: 0.0
- Off note (0-9) A [1]: 0.0
- Onset sweetness (0-9) A [1]: 5.0
- Overall sweetness (0-9) A [1]: 6.0
- acidity (0-9) A [1]: 4.0
- fruity (0-9) A [1]: 5.0
- juicy (0-9) A [1]: 4.0
- mouthfeel (0-9) A [1]: 4.0
- orange (0-9) A [1]: 5.0
- Lingering sweetness (0-9) B [1]: 0.0
- Off note (0-9) B [1]: 0.0
- Onset sweetness (0-9) B [1]: 6.0
- Overall sweetness (0-9) B [1]: 7.5
- acidity (0-9) B [1]: 3.5
- fruity (0-9) B [1]: 5.0
- juicy (0-9) B [1]: 5.0
- mouthfeel (0-9) B [1]: 4.5
- orange (0-9) B [1]: 5.0
- Lingering sweetness (0-9) Δ [1]: 0.0
- Off note (0-9) Δ [1]: 0.0
- Onset sweetness (0-9) Δ [1]: 1.0
- Overall sweetness (0-9) Δ [1]: 1.5
- acidity (0-9) Δ [1]: −0.5
- fruity (0-9) Δ [1]: 0.0
- juicy (0-9) Δ [1]: 1.0
- mouthfeel (0-9) Δ [1]: 0.5
- orange (0-9) Δ [1]: 0.0
